Assay results as given in patent publication US20240398828A1, “HETERO-ATOM CONTAINING COMPOUNDS AND USES THEREOF” (Kumquat Biosciences Inc., priority 2021, published 2024).

Legend:
PTPN2 (i.e., TC-PTP) = molecular target: T1, PTPN2 (i.e., TC-PTP) (Homo sapiens, UniProt P17706); test: Phosphatase activity assay (DiFMUP substrate), PTPN2; assay type: biochemical; conditions: compounds binned ≤1 uM or >1 uM
T1 sequence (P17706 1-415): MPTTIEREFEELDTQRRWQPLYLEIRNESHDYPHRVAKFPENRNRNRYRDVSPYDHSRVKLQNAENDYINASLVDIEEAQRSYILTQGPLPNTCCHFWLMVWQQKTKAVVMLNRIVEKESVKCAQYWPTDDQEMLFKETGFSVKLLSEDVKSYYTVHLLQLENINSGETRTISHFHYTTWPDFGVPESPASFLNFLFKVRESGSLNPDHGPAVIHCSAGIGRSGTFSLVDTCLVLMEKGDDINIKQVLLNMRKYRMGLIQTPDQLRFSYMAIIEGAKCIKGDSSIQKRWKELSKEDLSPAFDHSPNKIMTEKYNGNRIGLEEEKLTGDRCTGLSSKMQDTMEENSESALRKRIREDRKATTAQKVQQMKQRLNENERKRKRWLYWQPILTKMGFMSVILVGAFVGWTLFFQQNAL
Outline: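 RT, HEPES pH 7.5 buffer with DTT/Tween-20. 10-point inhibitor series premixed ~2 min with enzyme (PTPN2 0.025 ng/ul). Start with DiFMUP at enzyme Km (~45 μM for PTPN2). Read DiFMU ex360/em450 continuously 15–30 min; initial rate vs concentration, 4-parameter fit → IC50.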

PTPN1 (i.e., PTP1B) = molecular target: T2, PTPN1 (i.e., PTP1B) (Homo sapiens, UniProt P18031); test: Phosphatase activity assay (DiFMUP substrate), PTP1B; assay type: biochemical; conditions: compounds binned ≤1 uM or >1 uM
T2 sequence (P18031 1-435): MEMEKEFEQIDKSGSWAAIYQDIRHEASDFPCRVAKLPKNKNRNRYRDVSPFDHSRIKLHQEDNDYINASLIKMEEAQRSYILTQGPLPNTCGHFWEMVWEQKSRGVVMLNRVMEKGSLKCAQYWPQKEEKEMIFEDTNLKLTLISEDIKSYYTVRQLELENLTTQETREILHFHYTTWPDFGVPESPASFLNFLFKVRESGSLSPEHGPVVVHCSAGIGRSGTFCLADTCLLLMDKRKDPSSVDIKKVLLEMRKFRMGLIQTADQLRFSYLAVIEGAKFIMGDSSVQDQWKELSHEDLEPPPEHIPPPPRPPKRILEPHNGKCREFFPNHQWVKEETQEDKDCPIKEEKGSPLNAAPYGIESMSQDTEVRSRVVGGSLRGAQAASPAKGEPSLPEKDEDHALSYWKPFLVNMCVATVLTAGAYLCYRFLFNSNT
Outline: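 First, serially diluted inhibitor is mixed about 2 minutes with enzyme in pH 7.5 HEPES/NaCl/EDTA/DTT/Tween-20 buffer. Next, DiFMUP is added at the enzyme's Km, approximately 45 μM for PTPN2. Finally, DiFMU appearance is read continuously at room temperature and rates are fitted for IC50.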

SMILES: O=C1CN(c2c(O)ccc(C3=CC(CCc4ccccc4)NC3)c2F)S(=O)(=O)N1 (stereo not shown) [Compound 473, 5-(2-fluoro-6-hydroxy-3-(5-phenethyl-2,5-dihydro-1H-pyrrol-3-yl)phenyl)-1,2,5-thiadiazolidin-3-one 1,1-dioxide]
- IC50 (PTPN2 (i.e., TC-PTP)): ≤ 1000 nM
- IC50 (PTPN1 (i.e., PTP1B)): ≤ 1000 nM

SMILES: N#CC1(n2cc(-c3ccc(O)c(N4CC(=O)NS4(=O)=O)c3F)c(F)n2)CC1 [Compound 474, 1-(4-(3-(1,1-dioxido-4-oxo-1,2,5-thiadiazolidin-2-yl)-2-fluoro-4-hydroxyphenyl)-3-fluoro-1H-pyrazol-1-yl)cyclopropane-1-carbonitrile]
- IC50 (PTPN2 (i.e., TC-PTP)): ≤ 1000 nM
- IC50 (PTPN1 (i.e., PTP1B)): ≤ 1000 nM

SMILES: O=C1CN(c2c(O)ccc(C3=CC4CCC3N4)c2F)S(=O)(=O)N1 (stereo not shown) [Compound 475, 5-(3-(7-azabicyclo[2.2.1]hept-2-en-2-yl)-2-fluoro-6-hydroxyphenyl)-1,2,5-thiadiazolidin-3-one 1,1-dioxide]
- IC50 (PTPN2 (i.e., TC-PTP)): > 1000 nM
- IC50 (PTPN1 (i.e., PTP1B)): ≤ 1000 nM

SMILES: N#CNC(=N)N1CC=C(c2ccc(O)c(N3CC(=O)NS3(=O)=O)c2F)C1 [Compound 476, N-cyano-3-(3-(1,1-dioxido-4-oxo-1,2,5-thiadiazolidin-2-yl)-2-fluoro-4-hydroxyphenyl)-2,5-dihydro-1H-pyrrole-1-carboximidamide]
- IC50 (PTPN2 (i.e., TC-PTP)): ≤ 1000 nM
- IC50 (PTPN1 (i.e., PTP1B)): ≤ 1000 nM

SMILES: O=C1CN(c2c(O)ccc(-c3cn[nH]c3)c2F)S(=O)(=O)N1 [Compound 477, 5-(2-fluoro-6-hydroxy-3-(1H-pyrazol-4-yl)phenyl)-1,2,5-thiadiazolidin-3-one 1,1-dioxide]
- IC50 (PTPN2 (i.e., TC-PTP)): ≤ 1000 nM
- IC50 (PTPN1 (i.e., PTP1B)): ≤ 1000 nM

SMILES: N#CC1CC1c1cc(-c2ccc(O)c(N3CC(=O)NS3(=O)=O)c2F)[nH]n1 (stereo not shown) [Compound 478, 2-(5-(3-(1,1-dioxido-4-oxo-1,2,5-thiadiazolidin-2-yl)-2-fluoro-4-hydroxyphenyl)-1H-pyrazol-3-yl)cyclopropane-1-carbonitrile]
- IC50 (PTPN2 (i.e., TC-PTP)): ≤ 1000 nM
- IC50 (PTPN1 (i.e., PTP1B)): ≤ 1000 nM

SMILES: Cn1nc(-c2ccc(O)c(N3CC(=O)NS3(=O)=O)c2F)cc1O [Compound 479, 5-(2-fluoro-6-hydroxy-3-(5-hydroxy-1-methyl-1H-pyrazol-3-yl)phenyl)-1,2,5-thiadiazolidin-3-one 1,1-dioxide]
- IC50 (PTPN2 (i.e., TC-PTP)): ≤ 1000 nM
- IC50 (PTPN1 (i.e., PTP1B)): ≤ 1000 nM

SMILES: O=C1CN(c2c(O)ccc(C3=CC(COC(F)F)NC3)c2F)S(=O)(=O)N1 (stereo not shown) [Compound 480, 5-(3-(5-((difluoromethoxy)methyl)-2,5-dihydro-1H-pyrrol-3-yl)-2-fluoro-6-hydroxyphenyl)-1,2,5-thiadiazolidin-3-one 1,1-dioxide]
- IC50 (PTPN2 (i.e., TC-PTP)): ≤ 1000 nM
- IC50 (PTPN1 (i.e., PTP1B)): ≤ 1000 nM

SMILES: COCC1C=C(c2ccc(O)c(N3CC(=O)NS3(=O)=O)c2F)CN1 (stereo not shown) [Compound 481, 5-(2-fluoro-6-hydroxy-3-(5-(methoxymethyl)-2,5-dihydro-1H-pyrrol-3-yl)phenyl)-1,2,5-thiadiazolidin-3-one 1,1-dioxide]
- IC50 (PTPN2 (i.e., TC-PTP)): ≤ 1000 nM
- IC50 (PTPN1 (i.e., PTP1B)): ≤ 1000 nM

SMILES: CC(C)C1C=C(c2ccc(O)c(N3CC(=O)NS3(=O)=O)c2F)CN1 (stereo not shown) [Compound 482, 5-(2-fluoro-6-hydroxy-3-(5-isopropyl-2,5-dihydro-1H-pyrrol-3-yl)phenyl)-1,2,5-thiadiazolidin-3-one 1,1-dioxide]
- IC50 (PTPN2 (i.e., TC-PTP)): ≤ 1000 nM
- IC50 (PTPN1 (i.e., PTP1B)): ≤ 1000 nM

SMILES: C[C@@H]1C=C(c2ccc(O)c(N3CC(=O)NS3(=O)=O)c2F)CN1 [Compound 483, (R)-5-(2-fluoro-6-hydroxy-3-(5-methyl-2,5-dihydro-1H-pyrrol-3-yl)phenyl)-1,2,5-thiadiazolidin-3-one 1,1-dioxide]
- IC50 (PTPN2 (i.e., TC-PTP)): ≤ 1000 nM
- IC50 (PTPN1 (i.e., PTP1B)): ≤ 1000 nM

SMILES: N#CC1(n2cc(-c3ccc(O)c(N4CC(=O)NS4(=O)=O)c3F)cn2)CC1 [Compound 484, 1-(4-(3-(1,1-dioxido-4-oxo-1,2,5-thiadiazolidin-2-yl)-2-fluoro-4-hydroxyphenyl)-1H-pyrazol-1-yl)cyclopropane-1-carbonitrile]
- IC50 (PTPN2 (i.e., TC-PTP)): ≤ 1000 nM
- IC50 (PTPN1 (i.e., PTP1B)): ≤ 1000 nM

SMILES: CCn1cc(-c2ccc(O)c(N3CC(=O)NS3(=O)=O)c2F)cn1 [Compound 486, 5-(3-(1-ethyl-1H-pyrazol-4-yl)-2-fluoro-6-hydroxyphenyl)-1,2,5-thiadiazolidin-3-one 1,1-dioxide]
- IC50 (PTPN2 (i.e., TC-PTP)): ≤ 1000 nM
- IC50 (PTPN1 (i.e., PTP1B)): ≤ 1000 nM

SMILES: O=C1CN(c2c(Cl)ccc(-c3cc(C4CC4)n[nH]3)c2F)S(=O)(=O)N1 [Compound 487, 5-(6-chloro-3-(3-cyclopropyl-1H-pyrazol-5-yl)-2-fluorophenyl)-1,2,5-thiadiazolidin-3-one 1,1-dioxide]
- IC50 (PTPN2 (i.e., TC-PTP)): > 1000 nM
- IC50 (PTPN1 (i.e., PTP1B)): ≤ 1000 nM

SMILES: O=C1CN(c2c(O)ccc(-c3cn(CC(F)F)nc3F)c2F)S(=O)(=O)N1 [Compound 488, 5-(3-(1-(2,2-difluoroethyl)-3-fluoro-1H-pyrazol-4-yl)-2-fluoro-6-hydroxyphenyl)-1,2,5-thiadiazolidin-3-one 1,1-dioxide]
- IC50 (PTPN2 (i.e., TC-PTP)): ≤ 1000 nM
- IC50 (PTPN1 (i.e., PTP1B)): ≤ 1000 nM

SMILES: O=C1CN(c2c(O)ccc(C3=CCNC3)c2F)S(=O)(=O)N1 [Compound 489, 5-(3-(2,5-dihydro-1H-pyrrol-3-yl)-2-fluoro-6-hydroxyphenyl)-1,2,5-thiadiazolidin-3-one 1,1-dioxide]
- IC50 (PTPN2 (i.e., TC-PTP)): ≤ 1000 nM
- IC50 (PTPN1 (i.e., PTP1B)): ≤ 1000 nM

SMILES: O=C1CN(c2c(O)ccc(-c3cc(C4CC4(F)F)no3)c2F)S(=O)(=O)N1 (stereo not shown) [Compound 490, 5-(3-(3-(2,2-difluorocyclopropyl)isoxazol-5-yl)-2-fluoro-6-hydroxyphenyl)-1,2,5-thiadiazolidin-3-one 1,1-dioxide]
- IC50 (PTPN2 (i.e., TC-PTP)): ≤ 1000 nM
- IC50 (PTPN1 (i.e., PTP1B)): ≤ 1000 nM

SMILES: O=C1CN(c2c(O)ccc(-c3cc(C4CC4(F)F)nn3CC(F)F)c2F)S(=O)(=O)N1 (stereo not shown) [Compound 491, 5-(3-(3-(2,2-difluorocyclopropyl)-1-(2,2-difluoroethyl)-1H-pyrazol-5-yl)-2-fluoro-6-hydroxyphenyl)-1,2,5-thiadiazolidin-3-one 1,1-dioxide]
- IC50 (PTPN2 (i.e., TC-PTP)): ≤ 1000 nM
- IC50 (PTPN1 (i.e., PTP1B)): ≤ 1000 nM

SMILES: O=C1CN(c2c(O)ccc(-c3cc(C4CC4C(F)F)n[nH]3)c2F)S(=O)(=O)N1 (stereo not shown) [Compound 492, 5-(3-(3-(2-(difluoromethyl)cyclopropyl)-1H-pyrazol-5-yl)-2-fluoro-6-hydroxyphenyl)-1,2,5-thiadiazolidin-3-one 1,1-dioxide]
- IC50 (PTPN2 (i.e., TC-PTP)): ≤ 1000 nM
- IC50 (PTPN1 (i.e., PTP1B)): ≤ 1000 nM

SMILES: CCC1C=C(c2ccc(O)c(N3CC(=O)NS3(=O)=O)c2F)CN1 (stereo not shown) [Compound 493, 5-(3-(5-ethyl-2,5-dihydro-1H-pyrrol-3-yl)-2-fluoro-6-hydroxyphenyl)-1,2,5-thiadiazolidin-3-one 1,1-dioxide]
- IC50 (PTPN2 (i.e., TC-PTP)): ≤ 1000 nM
- IC50 (PTPN1 (i.e., PTP1B)): ≤ 1000 nM

SMILES: CCn1nc(-c2ccc(O)c(N3CC(=O)NS3(=O)=O)c2F)cc1C1CC1(F)F (stereo not shown) [Compound 494, 5-(3-(5-(2,2-difluorocyclopropyl)-1-ethyl-1H-pyrazol-3-yl)-2-fluoro-6-hydroxyphenyl)-1,2,5-thiadiazolidin-3-one 1,1-dioxide]
- IC50 (PTPN2 (i.e., TC-PTP)): ≤ 1000 nM
- IC50 (PTPN1 (i.e., PTP1B)): ≤ 1000 nM

SMILES: CS(=O)(=O)n1nc(C2CC2)cc1-c1ccc(O)c(N2CC(=O)NS2(=O)=O)c1F [Compound 495, 5-(3-(3-cyclopropyl-1-(methylsulfonyl)-1H-pyrazol-5-yl)-2-fluoro-6-hydroxyphenyl)-1,2,5-thiadiazolidin-3-one 1,1-dioxide]
- IC50 (PTPN2 (i.e., TC-PTP)): ≤ 1000 nM
- IC50 (PTPN1 (i.e., PTP1B)): ≤ 1000 nM

SMILES: O=C1CN(c2c(O)ccc(C3=CCN(CC4CC4)C3)c2F)S(=O)(=O)N1 [Compound 496, 5-(3-(1-(cyclopropylmethyl)-2,5-dihydro-1H-pyrrol-3-yl)-2-fluoro-6-hydroxyphenyl)-1,2,5-thiadiazolidin-3-one 1,1-dioxide]
- IC50 (PTPN2 (i.e., TC-PTP)): ≤ 1000 nM
- IC50 (PTPN1 (i.e., PTP1B)): ≤ 1000 nM

SMILES: CCC1C=C(c2ccc(O)c(N3CC(=O)NS3(=O)=O)c2F)CNC1 (stereo not shown) [Compound 497, 5-(3-(5-ethyl-1,2,5,6-tetrahydropyridin-3-yl)-2-fluoro-6-hydroxyphenyl)-1,2,5-thiadiazolidin-3-one 1,1-dioxide]
- IC50 (PTPN2 (i.e., TC-PTP)): ≤ 1000 nM
- IC50 (PTPN1 (i.e., PTP1B)): ≤ 1000 nM

SMILES: CS(=O)(=O)n1nc(-c2ccc(O)c(N3CC(=O)NS3(=O)=O)c2F)cc1C1CC1 [Compound 498, 5-(3-(5-cyclopropyl-1-(methylsulfonyl)-1H-pyrazol-3-yl)-2-fluoro-6-hydroxyphenyl)-1,2,5-thiadiazolidin-3-one 1,1-dioxide]
- IC50 (PTPN2 (i.e., TC-PTP)): ≤ 1000 nM
- IC50 (PTPN1 (i.e., PTP1B)): ≤ 1000 nM

SMILES: N=C(N)N1CCC=C(c2ccc(O)c(N3CC(=O)NS3(=O)=O)c2F)C1 [Compound 499, 5-(3-(1,1-dioxido-4-oxo-1,2,5-thiadiazolidin-2-yl)-2-fluoro-4-hydroxyphenyl)-3,6-dihydropyridine-1(2H)-carboximidamide]
- IC50 (PTPN2 (i.e., TC-PTP)): ≤ 1000 nM
- IC50 (PTPN1 (i.e., PTP1B)): ≤ 1000 nM
